This note sets out measurements from US20250333371A1, “COMPOUNDS” (PSYLO PTY LTD, priority 2022, published 2025).

Format in all cases: cell-based
One test concerns the target T1, 5-HT2C (Homo sapiens, UniProt P28335).
T1 construct: host or cells: HEK293
T1 sequence (P28335 33-458): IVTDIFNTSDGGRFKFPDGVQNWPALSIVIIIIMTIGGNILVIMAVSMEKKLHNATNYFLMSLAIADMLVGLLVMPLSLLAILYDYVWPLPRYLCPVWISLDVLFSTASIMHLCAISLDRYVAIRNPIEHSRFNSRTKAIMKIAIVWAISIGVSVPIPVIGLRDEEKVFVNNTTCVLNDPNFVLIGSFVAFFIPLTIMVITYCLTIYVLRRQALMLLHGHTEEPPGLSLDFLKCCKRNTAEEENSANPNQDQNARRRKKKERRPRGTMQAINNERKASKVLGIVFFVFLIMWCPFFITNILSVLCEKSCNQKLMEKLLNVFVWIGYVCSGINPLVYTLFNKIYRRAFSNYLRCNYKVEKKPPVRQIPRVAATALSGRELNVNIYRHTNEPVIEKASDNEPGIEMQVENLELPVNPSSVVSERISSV
Kind of test: FLIPR Ca2+ flux functional assay, 5-HT2C receptor (stably transfected HEK293). As to the method: (§1) Activity at 5-HT2A, 5-HT2B and 5-HT2C receptors was determined using a FLIPR Ca^2+ flux assay at WuXi AppTec Co. Ltd. (Hong Kong) Discovery Biology Unit according to their standard protocols. Briefly, stably transfected cells expressing the receptor of interest (HEK293 for 5-HT2A and 5-HT2C; CHO-K1 for 5-HT2B) were grown and plated in a 384 well plate and incubated at 37° C. and 5% CO2 overnight. A 250 mM stock solution of probenecid in FLIPR calcium assay buffer (10 mL) was freshly prepared and combined with a fluorescent dye (Fluo-4 Direct) to give a final assay concentration of 2.5 mM. Reference compounds were 4-fold serially diluted and the screening compounds were 3-fold serially diluted in 100% DMSO for 10 points using Agilent Bravo, and 750 nL was added to a 384 well compound plate using Echo along with 30 μL assay buffer. The fluorescent dye was then added to the assay plate along with assay buffer to a final volume of 40 μL. The cell plate was incubated for 50 min at 37° C. and 5% CO2 and placed into the FLIPR Tetra along with the compound plate. 10 μL of references and compounds were then transferred from the compound plate into the cell plate and the fluorescent signal was read.
On the technique in general: Calcium assays in cells follow changes in intracellular calcium, usually with a dye or a luminescent sensor.

The target of the next test is T2, 5-HT2B (Homo sapiens, UniProt P41595).
T2 construct: host or cells: CHO-K1
T2 sequence (P41595 whole entry): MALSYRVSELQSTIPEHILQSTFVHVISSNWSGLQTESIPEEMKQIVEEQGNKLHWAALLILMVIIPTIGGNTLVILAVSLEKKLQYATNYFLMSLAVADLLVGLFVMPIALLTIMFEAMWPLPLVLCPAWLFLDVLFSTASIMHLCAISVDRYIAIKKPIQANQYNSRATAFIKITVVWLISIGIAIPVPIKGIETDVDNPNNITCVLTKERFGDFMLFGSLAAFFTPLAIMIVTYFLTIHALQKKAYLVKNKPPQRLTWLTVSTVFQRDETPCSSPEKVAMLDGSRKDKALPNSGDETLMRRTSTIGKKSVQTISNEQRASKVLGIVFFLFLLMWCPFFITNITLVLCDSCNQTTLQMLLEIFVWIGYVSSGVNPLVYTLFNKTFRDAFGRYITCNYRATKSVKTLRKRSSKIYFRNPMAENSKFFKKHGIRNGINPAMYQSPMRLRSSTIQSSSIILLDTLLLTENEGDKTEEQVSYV
Kind of test: FLIPR Ca2+ flux functional assay, 5-HT2B receptor (stably transfected CHO-K1). As to the method:
as §1

For another test, the target named is T3, 5-HT2A (Homo sapiens, UniProt P28223).
T3 construct: host or cells: HEK293
T3 sequence (P28223 whole entry): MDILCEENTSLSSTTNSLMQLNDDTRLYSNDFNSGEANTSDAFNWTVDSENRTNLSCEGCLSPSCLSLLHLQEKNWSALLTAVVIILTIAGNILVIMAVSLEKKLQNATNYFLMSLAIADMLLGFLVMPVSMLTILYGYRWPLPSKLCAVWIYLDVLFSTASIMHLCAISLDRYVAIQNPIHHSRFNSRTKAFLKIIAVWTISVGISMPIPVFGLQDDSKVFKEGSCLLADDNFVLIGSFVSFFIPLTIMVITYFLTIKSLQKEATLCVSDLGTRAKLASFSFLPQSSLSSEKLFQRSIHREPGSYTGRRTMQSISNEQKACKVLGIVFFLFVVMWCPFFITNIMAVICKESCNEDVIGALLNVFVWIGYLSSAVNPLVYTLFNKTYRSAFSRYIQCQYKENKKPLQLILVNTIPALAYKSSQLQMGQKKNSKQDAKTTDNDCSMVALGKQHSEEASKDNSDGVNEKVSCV
The experiment in a line: FLIPR Ca2+ flux functional assay, 5-HT2A receptor (stably transfected HEK293). As to conditions: for Emax at 10 µM: no EC50 value given, read-out: 5-HT2A Emax (%) printed as % @ 10 uM. As to the method:
as §1

[1] abbreviates: agonist activity, Ca2+ flux, HEK293.
The mark [2] stands for this setting: agonist activity, Ca2+ flux, CHO-K1.
Where [3] appears, read: agonist activity, Ca2+ flux, HEK293, read-out: 5-HT2C EC50.
Setting [4] is: agonist activity, Ca2+ flux, HEK293, read-out: 5-HT2A EC50.
The mark [5] stands for this setting: agonist activity, Ca2+ flux, CHO-K1, read-out: 5-HT2B EC50.

pEC50: −log10 of the molar value. Like-named read-outs stand apart in the source and are kept apart here.

Broadly, the pEC50 is −log10 of the EC50, conventionally taken in molar units. The Emax is the greatest response seen or fitted, relative to the assay's reference. For `COc1cccc2cccc(CCN(C)C(C)C)c12` [Example I-28, N-(2-(8-methoxynaphthalen-1-yl)ethyl)-N-methylpropan-2-amine], the pEC50 was 6.12 at 5-HT2C, less than 5.00 at 5-HT2B and 6.72 on 5-HT2A. The figures for the Emax at 5-HT2C (setting [1]), on 5-HT2B (setting [2]) and at 5-HT2A (setting [1]) were 76%, 46% and 94%, respectively.

As to `CN(C)CCc1cccc2ccc(F)cc12` [Example I-38, 2-(7-fluoronaphthalen-1-yl)-N,N-dimethylethan-1-amine], the pEC50 on 5-HT2C is 7.34; on 5-HT2A it was 6.61. The figures for the Emax at 5-HT2C (setting [1]) and at 5-HT2A (setting [1]) were 83% and 66%, respectively.

On to `CN(CCc1cccc2cccc(O)c12)C1CC1` [Example I-31, 8-(2-(cyclopropyl(methyl)amino)ethyl)naphthalen-1-ol], for which the Emax was 57% on 5-HT2C (setting [1]) and 64% at 5-HT2A (setting [1]). Besides, the negative logarithm of the EC50 (pEC50) on 5-HT2C (setting [3]) was 6.91; at 5-HT2A (setting [4]), 7.22.

As for `CC(C)N(C)CCc1cccc2cccc(O)c12` [Example I-29, 8-(2-(methyl(isopropyl)amino)ethyl)naphthalen-1-ol], the negative logarithm of the EC50 (pEC50) on 5-HT2C was 7.27; at 5-HT2A (setting [4]) it was 7.44. Moreover, the Emax stood at 84% at 5-HT2C (setting [1]) and 79% at 5-HT2A (setting [1]).

For the molecule `NCCc1cccc2ccc(F)cc12` [Example I-53, 2-(7-fluoronaphthalen-1-yl)ethan-1-amine], the pEC50 at 5-HT2C is 9.00; at 5-HT2A, 7.47. For the same molecule, the Emax came out at 97% at 5-HT2C (setting [1]) and 83% on 5-HT2A (setting [1]).

`COc1cccc2c(CCN(C)C)cccc12` [Example I-50, 2-(5-methoxynaphthalen-1-yl)-N,N-dimethylethan-1-amine]: the Emax at 10 µM at 5-HT2A (HEK293) is 28%.

Turning to `COc1ccc2cccc(CCN(C)C)c2c1` [Example I-1, 2-(7-methoxynaphthalen-1-yl)-N,N-dimethylethan-1-amine], the pEC50 is 7.48 at 5-HT2C, less than 5.00 on 5-HT2B and 7.02 at 5-HT2A (setting [4]). In addition, the Emax on 5-HT2C (setting [1]) was 82%; on 5-HT2B (setting [2]), -0.99%; on 5-HT2A (setting [1]), 79%.

As for `CCN(CC)CCc1cccc2ccc(OC)cc12` [Example I-2, N,N-diethyl-2-(7-methoxynaphthalen-1-yl)ethan-1-amine], the values for the negative-log EC50 (pEC50) on 5-HT2C, on 5-HT2B and on 5-HT2A were 6.13, less than 5.00 and 6.44, respectively. Further, the Emax on 5-HT2C (setting [1]) was found to be 88%; at 5-HT2B (setting [2]), 12%; on 5-HT2A (setting [1]), 70%.

Turning to `CCN(C)CCc1cccc2cccc(OC)c12` [Example I-25, N-ethyl-2-(8-methoxynaphthalen-1-yl)-N-methylethan-1-amine], the figures for the negative-log EC50 (pEC50) at 5-HT2C, at 5-HT2B and on 5-HT2A were 6.70, less than 5.00 and 6.80, respectively. In addition, the Emax at 5-HT2C (setting [1]) turned out to be 84%; at 5-HT2B (setting [2]) it was 24%; on 5-HT2A (setting [1]) it was 67%.

Consider `CCN(CC)CCc1cccc2cccc(OC)c12` [Example I-22, N,N-diethyl-2-(8-methoxynaphthalen-1-yl)ethan-1-amine], for which the pEC50 on 5-HT2C is 6.80; at 5-HT2B, less than 5.00; on 5-HT2A, 6.34. Further, the Emax on 5-HT2C (setting [1]) was determined as 95%; at 5-HT2B (setting [2]) it was 34%; at 5-HT2A (setting [1]), 85%.

`COc1cccc(CNCCc2cccc3ccc(OC)cc23)c1` [Example I-17, N-(3-methoxybenzyl)-2-(7-methoxynaphthalen-1-yl)ethan-1-amine]: the Emax came to 97% on 5-HT2C (setting [1]) and 84% on 5-HT2A (setting [1]). For the same molecule, the results for the negative-log EC50 (pEC50) on 5-HT2C (setting [3]) and on 5-HT2A (setting [4]) were 7.74 and 7.04, respectively.

As for `CN(C)CCc1cccc2ccc(Cl)cc12` [Example I-32, 2-(7-chloronaphthalen-1-yl)-N,N-dimethylethan-1-amine], the negative-log EC50 (pEC50) was 7.21 on 5-HT2C and 6.62 at 5-HT2A. Moreover, the Emax on 5-HT2C (setting [1]) was 87%; on 5-HT2A (setting [1]), 63%.

With `COc1cccc2cccc(CCN(C)C3CC3)c12` [Example I-30, N-(2-(8-methoxynaphthalen-1-yl)ethyl)-N-methylcyclopropanamine], the results for the Emax on 5-HT2C (setting [1]) and on 5-HT2A (setting [1]) were 60% and 48%, respectively. Also, the figures for the negative logarithm of the EC50 (pEC50) at 5-HT2C (setting [3]) and on 5-HT2A (setting [4]) were 6.39 and 6.30, respectively.

`CCCN(CCC)CCc1cccc2cccc(OC)c12` [Example I-23, N-(2-(8-methoxynaphthalen-1-yl)ethyl)-N-propylpropan-1-amine]: the Emax at 5-HT2C (setting [1]) was determined as 88%; at 5-HT2B (setting [2]) it was 89%; on 5-HT2A (setting [1]), 93%. The pEC50 at 5-HT2C (setting [3]) is 6.54; at 5-HT2B (setting [5]), 6.99; on 5-HT2A (setting [4]), 6.78.

Regarding `COc1cnc2cccc(CCN(C)C)c2c1` [Example I-9, 2-(3-methoxyquinolin-5-yl)-N,N-dimethylethan-1-amine], the Emax on 5-HT2C (setting [1]) worked out at 65%; on 5-HT2B (setting [2]) it was 1%; on 5-HT2A (setting [1]), 39%. Further, the negative-log EC50 (pEC50) on 5-HT2C (setting [3]) was 5.62; on 5-HT2B (setting [5]), less than 5.00; at 5-HT2A (setting [4]), 5.73.

With `CCN(C)CCc1cccc2ccccc12` [Example I-33, N-ethyl-N-methyl-2-(naphthalen-1-yl)ethan-1-amine], the negative logarithm of the EC50 (pEC50) on 5-HT2C is 6.94; at 5-HT2A, 6.69. For the same molecule, the Emax was found to be 67% at 5-HT2C (setting [1]) and 58% on 5-HT2A (setting [1]).

Take `CCN(C)CCc1cccc2cccc(O)c12` [Example I-26, 8-(2-(methyl(ethyl)amino)ethyl)naphthalen-1-ol]: the negative logarithm of the EC50 (pEC50) on 5-HT2C is 7.82; at 5-HT2A (setting [4]), 7.39. Moreover, the values for the Emax on 5-HT2C (setting [1]) and at 5-HT2A (setting [1]) were 86% and 68%, respectively.

With `COc1ccc2cccc(CCN(C)C)c2n1` [Example I-8, 2-(2-methoxyquinolin-8-yl)-N,N-dimethylethan-1-amine], the Emax is 87% at 5-HT2C (setting [1]) and 8% on 5-HT2B (setting [2]). Further, the figures for the negative-log EC50 (pEC50) on 5-HT2C (setting [3]) and at 5-HT2B (setting [5]) were 6.50 and less than 5.00, respectively. In addition, the Emax at 10 µM on 5-HT2A (HEK293) stood at 24%.

For the molecule `CN(CCc1cccc2ccc(F)cc12)C1CC1` [Example I-41, N-(2-(7-fluoronaphthalen-1-yl)ethyl)-N-methylcyclopropanamine], the Emax on 5-HT2C (setting [1]) is 80%; at 5-HT2A (setting [1]), 33%. The values for the pEC50 at 5-HT2C (setting [3]) and on 5-HT2A (setting [4]) were 6.82 and 5.99, respectively.

For `CN(C)CCc1cccc2cccc(O)c12` [Example I-21, 8-(2-(dimethylamino)ethyl)naphthalen-1-ol], the pEC50 at 5-HT2C is 7.92; at 5-HT2A (setting [4]), 7.28. For the same molecule, the Emax was found to be 90% at 5-HT2C (setting [1]) and 73% at 5-HT2A (setting [1]).

For the molecule `COc1cccc2c(CCN)cccc12` [Example I-52, 2-(5-methoxynaphthalen-1-yl)ethan-1-amine], the pEC50 was 6.54 on 5-HT2C and 6.53 at 5-HT2A. Besides, the Emax amounted to 91% at 5-HT2C (setting [1]) and 79% at 5-HT2A (setting [1]).

Consider `CC(C)N(C)CCc1cccc2ccc(F)cc12` [Example I-40, N-(2-(7-fluoronaphthalen-1-yl)ethyl)-N-methylpropan-2-amine], for which the pEC50 at 5-HT2C was 6.92; on 5-HT2A it was 6.42. Moreover, the Emax on 5-HT2C (setting [1]) amounted to 84%; on 5-HT2A (setting [1]), 68%.

On to `CCN(C)CCc1cccc2ccc(F)cc12` [Example I-39, N-ethyl-2-(7-fluoronaphthalen-1-yl)-N-methylethan-1-amine], for which the negative-log EC50 (pEC50) at 5-HT2C was 7.48; on 5-HT2A it was 6.77. The Emax on 5-HT2C (setting [1]) was determined as 93%; on 5-HT2A (setting [1]) it was 58%.
